{"source": "paper PMC3769273", "about": "“The Relationship between Functional Inhibition and Binding for KCa2 Channel Blockers” (PLoS ONE, 2013)", "key": {"KCa2.2 [1]": {"target": "T1, KCa2.2 (Rattus norvegicus, UniProt P70604)", "T1 construct": "expressed in transfected cells; host or cells: HEK 293 cells, transient transfection (Lipofectamine 2000) with channel plasmid plus a separate GFP plasmid; Some experiments used stably transfected cells", "T1 sequence (P70604 whole entry)": "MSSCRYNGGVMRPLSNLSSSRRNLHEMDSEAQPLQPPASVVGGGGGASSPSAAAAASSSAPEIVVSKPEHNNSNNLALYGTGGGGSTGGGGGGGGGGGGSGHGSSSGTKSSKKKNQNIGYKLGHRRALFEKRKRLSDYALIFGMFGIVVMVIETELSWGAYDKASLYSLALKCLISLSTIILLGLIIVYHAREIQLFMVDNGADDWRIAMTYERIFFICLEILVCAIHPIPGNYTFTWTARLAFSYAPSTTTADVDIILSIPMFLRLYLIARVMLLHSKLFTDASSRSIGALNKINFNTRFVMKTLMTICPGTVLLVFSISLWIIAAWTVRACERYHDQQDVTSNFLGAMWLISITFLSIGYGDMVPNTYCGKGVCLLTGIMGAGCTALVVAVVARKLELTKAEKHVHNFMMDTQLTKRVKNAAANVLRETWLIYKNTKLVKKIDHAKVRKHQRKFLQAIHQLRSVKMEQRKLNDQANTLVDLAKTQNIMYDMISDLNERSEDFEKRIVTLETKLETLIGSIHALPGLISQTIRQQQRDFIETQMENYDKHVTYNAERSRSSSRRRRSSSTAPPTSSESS", "assay": "cell-based", "format": "cell-based", "settings": "for IC50: KCa2.2, standard physiological solution, measured at −20 mV, read-out: IC50 for inhibition of KCa2 current; for common Hill slope of concentration-inhibition curves: KCa2.2 current, standard solution", "method": "For electrophysiology, wild type and stably transfected HEK cells were plated in 35 mm dishes. In most experiments KCa2.2 was transiently expressed in HEK 293 cells. Transient transfection was achieved using Lipofectamine 2000 (Invitrogen) according to the manufacturer's instructions. Briefly, 2 µg channel plasmid and 1 µg QBI (QBiogene), which expresses GFP, was mixed with 3 µg Lipofectamine 2000 and added to each 35 mm dish. GFP expressing cells were identified by epi-fluorescence. Conventional whole cell recordings were made using an EPC9 amplifier controlled by Pulse software (Heka). Data were filtered at 1 kHz and acquired at 5 kHz. Borosilicate glass patch pipettes (2–5 MΩ) were coated with Sylgard resin, fire polished and filled with a solution containing (in mM): KCl 140, HEPES 10, K2HEDTA 5, and either 1.2 CaCl2 (free Ca^2+ = 1 µM) or no added Ca^2+ (free Ca^2+ <10 nM). The pH was adjusted to 7.2 with 1 M KOH. Free Ca^2+ concentrations were calculated using the REACT program (G.L. Smith, University of Glasgow) and stability constants for HEDTA published in Martell and Smith. Except where stated the extracellular solution was the same as the incubation medium used in binding experiments. As with binding studies all experiments were performed at room temperature (20–25°C).\nRoutinely, cells were held at −80 mV and 100 ms test pulses applied to potentials between −120 mV and 40 mV. […] In order to avoid contamination of KCa2 current by the endogenous currents, inhibition by blocking agents was measured at −20 mV.\nConcentration-inhibition curves were fitted by a variant of the Hill equation with the form: [drawing 4] where y is the current in the presence of blocker at concentration [B] expressed as a percentage of control and n is the Hill coefficient."}, "KCa2.3 [2]": {"system": "KCa2.3", "settings": "KCa2.3, CHO cells, ref Hosseini et al. 2000; read-out: IC50 for inhibition of KCa2 current; cited from earlier work"}, "KCa2.2 [3]": {"target": "T1, KCa2.2", "assay": "Competition binding: inhibition of 125I-apamin binding to HEK 293 cells expressing KCa2.2", "settings": "for Ki: KCa2.2, Cheng-Prussoff correction, read-out: K i for displacement of mono-iodoapamin", "method": "(§1) Radio-ligand binding studies were conducted using HEK 293 cell lines stably expressing KCa2.2 or KCa2.3. The cells were cultured in DMEM supplemented with 10% foetal calf serum, 2 mM L-glutamine, penicillin (200 units ml^–1) and streptomycin (100 µg ml^–1) in T500 flasks (Nunc). When confluent, these cells were harvested mechanically (to avoid the use of trypsin) into Ca^2+/Mg^2+ free HBSS. The cells were centrifuged at 50 g for 2 min, resuspended in DMEM at a density of approximately 2.5×10^6 cells ml^–1 and stored at 4°C until used (<2 hr). Cell density was estimated using a haemocytometer.\n(§2) Routinely, incubations were performed in a total volume of 250 µl comprising 100 µl cell suspension (∼250000 cells), 100 µl ^125I-apamin and 50 µl displacing agent or incubation medium. The incubation medium contained (in mM) NaCl 140, KCl 5, MgCl2 1, CaCl2 2, glucose 10 and HEPES 10. The pH was adjusted to 7.4 with 1 M NaOH. Non-specific binding was estimated in the presence of 100 nM UCL 1848, a potent KCa2 channel blocker which causes maximal inhibition at this concentration (see Hosseini et al., Benton et al.[13]). Measurements for each test were performed in triplicate. Separation of cells from unbound ligand was achieved by rapid filtration through Whatman GF/B filters pre-treated with 0.3% v/v polyethyleneimine using a Skatron AS harvester. The quantity of labelled apamin bound was measured using a calibrated γ counter (LKB 1275) and expressed as fmol label/10^6 cells. All binding experiments were conducted at room temperature (20–25°C).\n(§3) The ability of test compounds to inhibit ^125I-apamin binding was measured in the presence of 20–60 pM ^125I-apamin with or without the test compound. In every experiment each concentration of inhibitor was tested in triplicate and the data presented represents the mean of at least two separate experiments. Inhibition curves were fitted by a variant of Hill-Langmuir equation: [drawing 3] where B I is the specific binding of label in the presence of inhibitor as a percentage of the binding in its absence. Estimates of K i were obtained using the Cheng-Prussoff correction taking estimates of K L from the saturation binding studies."}, "KCa2.3 [4]": {"target": "T2, KCa2.3 (Rattus norvegicus, UniProt P70605)", "T2 construct": "expressed in transfected cells; host or cells: HEK 293 cell line stably expressing KCa2.3, made in house by zeocin selection", "T2 sequence (P70605 whole entry)": "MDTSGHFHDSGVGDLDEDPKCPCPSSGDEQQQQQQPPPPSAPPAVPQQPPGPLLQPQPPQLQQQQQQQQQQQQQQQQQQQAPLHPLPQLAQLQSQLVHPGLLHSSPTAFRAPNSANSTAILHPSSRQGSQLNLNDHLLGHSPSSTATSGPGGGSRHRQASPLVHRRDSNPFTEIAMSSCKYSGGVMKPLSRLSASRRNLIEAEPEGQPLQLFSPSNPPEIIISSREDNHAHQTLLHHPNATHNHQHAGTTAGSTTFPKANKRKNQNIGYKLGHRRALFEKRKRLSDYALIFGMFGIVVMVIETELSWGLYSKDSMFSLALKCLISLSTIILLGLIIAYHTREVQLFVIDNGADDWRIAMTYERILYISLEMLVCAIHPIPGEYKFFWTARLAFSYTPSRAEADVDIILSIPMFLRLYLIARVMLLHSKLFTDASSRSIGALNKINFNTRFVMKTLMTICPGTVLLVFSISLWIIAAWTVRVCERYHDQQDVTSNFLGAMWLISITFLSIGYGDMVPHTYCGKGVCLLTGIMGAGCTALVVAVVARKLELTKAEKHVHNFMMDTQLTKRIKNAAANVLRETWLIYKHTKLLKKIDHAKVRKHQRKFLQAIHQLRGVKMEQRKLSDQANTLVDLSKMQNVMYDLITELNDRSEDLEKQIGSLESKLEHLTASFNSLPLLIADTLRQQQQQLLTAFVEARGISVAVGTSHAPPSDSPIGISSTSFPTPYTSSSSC", "assay": "Competition binding: inhibition of 125I-apamin binding to HEK 293 cells expressing KCa2.3", "settings": "for Ki: KCa2.3, Cheng-Prussoff correction, read-out: K i for displacement of mono-iodoapamin", "method": "as §1, §2, §3"}}, "data": [{"molecule": "8,14-diaza-1,7(1, 4)-diquinolinacyclotetradecaphane [UCL 1848]", "values": [{"measurement": "IC50", "setting": "KCa2.2 [1]", "result": "0.125 ± 0.0025", "unit": "nM"}, {"measurement": "common Hill slope of concentration-inhibition curves", "setting": "KCa2.2 [1]", "result": "0.7±0.04"}, {"measurement": "IC50", "setting": "KCa2.3 [2]", "result": "2.1 ± 0.3", "unit": "nM"}, {"measurement": "inhibition of total 125I-apamin binding", "setting": "KCa2.2 [3]; 100 nM UCL 1848, 30 pM 125I-apamin, KCa2.2 expressing HEK 293 cells", "result": "almost completely inhibited"}, {"measurement": "Ki", "setting": "KCa2.2 [3]", "result": "0.095 ± 0.0017", "unit": "nM"}, {"measurement": "inhibition of total 125I-apamin binding", "setting": "KCa2.3 [4]; 100 nM UCL 1848, 30 pM 125I-apamin, KCa2.3 expressing HEK 293 cells", "result": "almost completely inhibited"}, {"measurement": "Ki", "setting": "KCa2.3 [4]", "result": "0.652 ± 0.18", "unit": "nM"}]}, {"molecule": "Cc1cc(N)c2ccccc2[n+]1CCCCCCCCCC[n+]1c(C)cc(N)c2ccccc21", "note": "[Dequalinium, dequalinium]", "values": [{"measurement": "IC50", "setting": "KCa2.2 [1]", "result": "420 ± 99", "unit": "nM"}, {"measurement": "common Hill slope of concentration-inhibition curves", "setting": "KCa2.2 [1]", "result": "0.7±0.04"}, {"measurement": "IC50", "setting": "KCa2.3 [2]", "result": "920 ± 140", "unit": "nM"}, {"measurement": "Ki", "setting": "KCa2.2 [3]", "result": "977 ± 165", "unit": "nM"}, {"measurement": "Ki", "setting": "KCa2.3 [4]", "result": "865 ± 160", "unit": "nM"}]}, {"molecule": "CC[N+](CC)(CC)CCOc1cccc(OCC[N+](CC)(CC)CC)c1OCC[N+](CC)(CC)CC", "note": "[Gallamine, gallamine]", "values": [{"measurement": "IC50", "setting": "KCa2.2 [1]", "result": "7000 ± 800", "unit": "nM"}, {"measurement": "common Hill slope of concentration-inhibition curves", "setting": "KCa2.2 [1]", "result": "0.7±0.04"}, {"measurement": "IC50", "setting": "KCa2.3 [2]", "result": "98000 ± 700", "unit": "nM"}, {"measurement": "Ki", "setting": "KCa2.2 [3]", "result": "26000 ± 5000", "unit": "nM"}, {"measurement": "Ki", "setting": "KCa2.3 [4]", "result": "71000 ± 8000", "unit": "nM"}]}, {"molecule": "c1cc2cc(c1)C[n+]1ccc(c3ccccc31)NCc1ccc(cc1)CNc1cc[n+](c3ccccc13)C2", "note": "[UCL1684, 6,10–diaza-3(1,3),8(1,4)-dibenzena-1,5(1,4)- diquinolinacyclodecaphane]", "values": [{"measurement": "IC50", "setting": "KCa2.2 [1]", "result": "0.53 ± 0.008", "unit": "nM"}, {"measurement": "common Hill slope of concentration-inhibition curves", "setting": "KCa2.2 [1]", "result": "0.7±0.04"}, {"measurement": "IC50", "setting": "KCa2.3 [2]", "result": "5.8 ± 0.3", "unit": "nM"}, {"measurement": "Ki", "setting": "KCa2.2 [3]", "result": "1.01 ± 0.022", "unit": "nM"}, {"measurement": "Ki", "setting": "KCa2.3 [4]", "result": "7.7 ± 1.6", "unit": "nM"}]}]}
